Experiments:
Settings in all cases: 10µM
CDK1/Cyclin E1 = CDK1/Cyclin E1 (Homo sapiens, UniProt P06493); assay: NanoBRET live-cell target engagement, CDK1-NanoLuc/Cyclin E1 in HEK-293; type: binding
CDK2/Cyclin E1 = CDK2/Cyclin E1 (Homo sapiens, UniProt P24941); assay: NanoBRET live-cell target engagement, CDK2-NanoLuc/Cyclin E1 in HEK-293; type: binding
CDK3/Cyclin E1 = CDK3/Cyclin E1 (Homo sapiens, UniProt Q00526); assay: NanoBRET live-cell target engagement, CDK3-NanoLuc/Cyclin E1 in HEK-293; type: binding
CDK4/Cyclin D1 = CDK4/Cyclin D1 (Homo sapiens, UniProt P11802); assay: NanoBRET live-cell target engagement, NanoLuc-CDK4/Cyclin D1 in HEK-293; type: binding
CDK5/CDK5R1 = CDK5/CDK5R1 (Homo sapiens, UniProt Q00535); assay: NanoBRET live-cell target engagement, CDK5-NanoLuc/CDK5R1 in HEK-293; type: binding
CDK6/Cyclin D1 = CDK6/Cyclin D1 (Homo sapiens, UniProt Q00534); assay: NanoBRET live-cell target engagement, NanoLuc-CDK6/Cyclin D1 in HEK-293; type: binding
CDK7 = CDK7 (Homo sapiens, UniProt P50613); assay: NanoBRET live-cell target engagement, NanoLuc-CDK7 in HEK-293; type: binding
CDK8/Cyclin C = CDK8/Cyclin C (Homo sapiens, UniProt P49336); assay: NanoBRET live-cell target engagement, NanoLuc-CDK8/Cyclin C in HEK-293; type: binding
CDK9/Cyclin K = CDK9/Cyclin K (Homo sapiens, UniProt P50750); assay: NanoBRET live-cell target engagement, NanoLuc-CDK9/Cyclin K in HEK-293; type: binding
CDK11A/Cyclin L2 = molecular target: T1, CDK11A/Cyclin L2 (Homo sapiens, UniProt Q9UQ88); assay: NanoBRET live-cell target engagement, CDK11A-NanoLuc/Cyclin L2 in HEK-293; type: binding
T1 sequence (Q9UQ88 1-783): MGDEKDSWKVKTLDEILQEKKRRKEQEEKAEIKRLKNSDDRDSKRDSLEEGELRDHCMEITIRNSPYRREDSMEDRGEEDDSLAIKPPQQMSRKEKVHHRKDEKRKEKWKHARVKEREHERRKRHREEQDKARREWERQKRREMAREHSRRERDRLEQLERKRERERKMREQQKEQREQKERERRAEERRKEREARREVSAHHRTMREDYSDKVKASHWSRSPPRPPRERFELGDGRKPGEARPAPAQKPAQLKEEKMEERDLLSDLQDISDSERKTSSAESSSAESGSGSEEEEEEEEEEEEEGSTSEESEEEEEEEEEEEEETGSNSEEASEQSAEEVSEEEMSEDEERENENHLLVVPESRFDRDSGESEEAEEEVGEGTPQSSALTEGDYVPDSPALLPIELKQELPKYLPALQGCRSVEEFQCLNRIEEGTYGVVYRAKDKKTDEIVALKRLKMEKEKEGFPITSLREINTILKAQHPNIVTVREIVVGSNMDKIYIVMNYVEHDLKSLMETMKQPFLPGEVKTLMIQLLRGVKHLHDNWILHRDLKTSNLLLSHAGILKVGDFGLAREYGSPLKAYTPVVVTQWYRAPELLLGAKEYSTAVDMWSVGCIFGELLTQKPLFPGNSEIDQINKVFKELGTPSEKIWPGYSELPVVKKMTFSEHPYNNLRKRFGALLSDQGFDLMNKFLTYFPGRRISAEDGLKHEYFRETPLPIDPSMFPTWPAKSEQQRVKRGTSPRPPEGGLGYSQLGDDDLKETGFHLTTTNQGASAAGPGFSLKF

CDK11B/Cyclin L2 = CDK11B/Cyclin L2 (Homo sapiens, UniProt P21127); assay: NanoBRET live-cell target engagement, CDK11B-NanoLuc/Cyclin L2 in HEK-293; type: binding
CDK12/Cyclin K = CDK12/Cyclin K (Homo sapiens, UniProt Q9NYV4); assay: NanoBRET live-cell target engagement, CDK12-NanoLuc/Cyclin K in HEK-293; type: binding
CDK13/Cyclin K = CDK13/Cyclin K (Homo sapiens, UniProt Q14004); assay: NanoBRET live-cell target engagement, CDK13-NanoLuc/Cyclin K in HEK-293; type: binding
CDK14/Cyclin Y = CDK14/Cyclin Y (Homo sapiens, UniProt O94921); assay: NanoBRET live-cell target engagement, CDK14-NanoLuc/Cyclin Y in HEK-293; type: binding
CDK15/Cyclin Y = CDK15/Cyclin Y (Homo sapiens, UniProt Q96Q40); assay: NanoBRET live-cell target engagement, NanoLuc-CDK15/Cyclin Y in HEK-293; type: binding
CDK16/Cyclin Y = CDK16/Cyclin Y (Homo sapiens, UniProt Q00536); assay: NanoBRET live-cell target engagement, CDK16-NanoLuc/Cyclin Y in HEK-293; type: binding
CDK17/Cyclin Y = CDK17/Cyclin Y (Homo sapiens, UniProt Q00537); assay: NanoBRET live-cell target engagement, CDK17-NanoLuc/Cyclin Y in HEK-293; type: binding
CDK18/Cyclin Y = CDK18/Cyclin Y (Homo sapiens, UniProt Q07002); assay: NanoBRET live-cell target engagement, CDK18-NanoLuc/Cyclin Y in HEK-293; type: binding
CDK20/Cyclin H = CDK20/Cyclin H (Homo sapiens, UniProt Q8IZL9); assay: NanoBRET live-cell target engagement, NanoLuc-CDK20/Cyclin H in HEK-293; type: binding
CDK19/Cyclin C = CDK19/Cyclin C (Homo sapiens, UniProt Q9BWU1); assay: NanoBRET live-cell target engagement, NanoLuc-CDK19/Cyclin C in HEK-293
CDK10/Cyclin L2 = CDK10/Cyclin L2 (Homo sapiens, UniProt Q15131); assay: NanoBRET live-cell target engagement, CDK10-NanoLuc/Cyclin L2 in HEK-293

CDK19/Cyclin C, sequence (Q9BWU1 whole entry): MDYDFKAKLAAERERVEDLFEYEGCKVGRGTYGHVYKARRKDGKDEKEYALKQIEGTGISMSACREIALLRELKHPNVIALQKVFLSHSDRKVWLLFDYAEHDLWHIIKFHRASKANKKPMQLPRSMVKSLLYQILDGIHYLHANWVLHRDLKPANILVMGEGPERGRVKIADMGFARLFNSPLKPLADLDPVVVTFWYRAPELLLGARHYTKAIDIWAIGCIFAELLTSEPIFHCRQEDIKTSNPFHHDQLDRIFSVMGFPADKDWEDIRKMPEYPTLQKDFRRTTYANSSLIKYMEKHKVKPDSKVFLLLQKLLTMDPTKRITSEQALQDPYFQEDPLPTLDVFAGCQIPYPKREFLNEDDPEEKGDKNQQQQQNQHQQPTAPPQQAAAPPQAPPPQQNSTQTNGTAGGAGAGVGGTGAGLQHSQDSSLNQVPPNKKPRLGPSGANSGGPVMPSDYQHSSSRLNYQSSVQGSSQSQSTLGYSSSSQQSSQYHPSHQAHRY
CDK19/Cyclin C, sequence (P24863 whole entry partner): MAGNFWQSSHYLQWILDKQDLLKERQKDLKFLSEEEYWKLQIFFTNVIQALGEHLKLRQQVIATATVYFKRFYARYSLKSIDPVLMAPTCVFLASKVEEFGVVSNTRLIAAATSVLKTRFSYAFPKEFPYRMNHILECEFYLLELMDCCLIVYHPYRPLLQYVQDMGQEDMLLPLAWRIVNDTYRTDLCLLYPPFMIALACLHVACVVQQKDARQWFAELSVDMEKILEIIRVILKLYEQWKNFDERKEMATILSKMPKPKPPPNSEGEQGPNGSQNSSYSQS
CDK7, sequence (P50613 whole entry): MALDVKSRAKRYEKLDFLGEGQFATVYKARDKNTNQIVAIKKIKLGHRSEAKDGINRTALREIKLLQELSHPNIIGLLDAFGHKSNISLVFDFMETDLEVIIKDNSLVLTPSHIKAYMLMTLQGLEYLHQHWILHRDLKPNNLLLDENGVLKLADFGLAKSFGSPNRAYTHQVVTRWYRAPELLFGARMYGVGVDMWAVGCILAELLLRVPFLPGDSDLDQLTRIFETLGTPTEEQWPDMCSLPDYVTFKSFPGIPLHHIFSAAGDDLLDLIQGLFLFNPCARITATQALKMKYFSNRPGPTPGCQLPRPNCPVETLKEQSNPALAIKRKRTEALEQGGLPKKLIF
CDK4/Cyclin D1, sequence (P11802 whole entry): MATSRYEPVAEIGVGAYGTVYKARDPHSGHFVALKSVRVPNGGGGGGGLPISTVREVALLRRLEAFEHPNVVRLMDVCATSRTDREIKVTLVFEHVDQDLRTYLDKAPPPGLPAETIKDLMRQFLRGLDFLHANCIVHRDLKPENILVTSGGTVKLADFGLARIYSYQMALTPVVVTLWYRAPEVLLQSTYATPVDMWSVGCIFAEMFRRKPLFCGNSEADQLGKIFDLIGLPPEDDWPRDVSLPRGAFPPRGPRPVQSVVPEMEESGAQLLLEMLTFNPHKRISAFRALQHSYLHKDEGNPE
CDK4/Cyclin D1, sequence (P24385 whole entry partner): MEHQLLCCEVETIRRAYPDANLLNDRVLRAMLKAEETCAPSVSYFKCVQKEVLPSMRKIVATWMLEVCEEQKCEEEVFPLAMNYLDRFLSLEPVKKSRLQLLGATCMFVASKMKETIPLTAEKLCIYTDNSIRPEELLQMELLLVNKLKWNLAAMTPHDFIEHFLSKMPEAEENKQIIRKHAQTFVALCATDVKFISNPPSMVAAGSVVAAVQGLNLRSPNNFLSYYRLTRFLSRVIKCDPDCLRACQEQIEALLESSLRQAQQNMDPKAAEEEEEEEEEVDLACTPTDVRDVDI
CDK9/Cyclin K, sequence (P50750 whole entry): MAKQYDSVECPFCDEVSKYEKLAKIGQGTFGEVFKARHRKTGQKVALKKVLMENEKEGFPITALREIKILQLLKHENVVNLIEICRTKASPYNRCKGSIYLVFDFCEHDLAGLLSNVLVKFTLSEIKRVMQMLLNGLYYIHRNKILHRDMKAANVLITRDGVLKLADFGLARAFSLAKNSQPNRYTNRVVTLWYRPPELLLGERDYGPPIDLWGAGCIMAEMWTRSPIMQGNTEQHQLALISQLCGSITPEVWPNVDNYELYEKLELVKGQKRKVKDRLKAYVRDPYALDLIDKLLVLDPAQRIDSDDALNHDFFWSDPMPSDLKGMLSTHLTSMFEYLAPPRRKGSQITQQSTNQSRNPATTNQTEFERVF
CDK9/Cyclin K, sequence (O75909 whole entry partner): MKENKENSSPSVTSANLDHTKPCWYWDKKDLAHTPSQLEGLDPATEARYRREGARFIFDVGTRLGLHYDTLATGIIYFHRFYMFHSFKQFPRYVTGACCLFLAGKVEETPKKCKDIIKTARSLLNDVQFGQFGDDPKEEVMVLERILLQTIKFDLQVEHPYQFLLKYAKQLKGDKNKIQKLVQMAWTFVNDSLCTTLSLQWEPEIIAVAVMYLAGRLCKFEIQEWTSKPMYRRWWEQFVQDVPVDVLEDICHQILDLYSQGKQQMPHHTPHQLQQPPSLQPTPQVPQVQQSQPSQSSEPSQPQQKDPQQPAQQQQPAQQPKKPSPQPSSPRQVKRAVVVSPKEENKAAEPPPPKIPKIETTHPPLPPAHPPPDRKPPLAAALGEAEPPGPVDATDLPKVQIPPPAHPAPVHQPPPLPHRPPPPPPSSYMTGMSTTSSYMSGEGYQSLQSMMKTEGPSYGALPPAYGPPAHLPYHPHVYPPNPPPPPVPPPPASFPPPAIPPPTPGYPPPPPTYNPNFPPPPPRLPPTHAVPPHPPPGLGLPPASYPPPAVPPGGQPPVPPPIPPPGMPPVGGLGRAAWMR
CDK1/Cyclin E1, sequence (P06493 whole entry): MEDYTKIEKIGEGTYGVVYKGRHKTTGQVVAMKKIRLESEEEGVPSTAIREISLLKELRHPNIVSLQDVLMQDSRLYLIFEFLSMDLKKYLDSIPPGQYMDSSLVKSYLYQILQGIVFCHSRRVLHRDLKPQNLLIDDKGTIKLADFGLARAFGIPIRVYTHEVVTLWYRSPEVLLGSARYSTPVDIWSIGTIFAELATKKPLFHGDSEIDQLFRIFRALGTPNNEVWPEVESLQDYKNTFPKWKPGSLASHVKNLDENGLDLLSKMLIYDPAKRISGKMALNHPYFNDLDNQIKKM
CDK1/Cyclin E1, sequence (P24864 whole entry partner): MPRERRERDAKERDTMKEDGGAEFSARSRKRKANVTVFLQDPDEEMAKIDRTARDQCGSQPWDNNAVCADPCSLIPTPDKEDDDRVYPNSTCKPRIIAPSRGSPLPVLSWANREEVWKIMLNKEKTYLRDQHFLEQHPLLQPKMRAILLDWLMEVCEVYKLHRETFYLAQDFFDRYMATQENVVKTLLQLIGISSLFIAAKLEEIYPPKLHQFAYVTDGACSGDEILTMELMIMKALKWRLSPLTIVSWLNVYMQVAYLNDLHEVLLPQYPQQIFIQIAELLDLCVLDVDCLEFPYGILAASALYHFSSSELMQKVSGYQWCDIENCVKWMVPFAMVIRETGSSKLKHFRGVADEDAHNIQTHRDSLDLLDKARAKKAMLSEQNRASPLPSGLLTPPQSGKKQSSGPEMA
CDK14/Cyclin Y, sequence (O94921 whole entry): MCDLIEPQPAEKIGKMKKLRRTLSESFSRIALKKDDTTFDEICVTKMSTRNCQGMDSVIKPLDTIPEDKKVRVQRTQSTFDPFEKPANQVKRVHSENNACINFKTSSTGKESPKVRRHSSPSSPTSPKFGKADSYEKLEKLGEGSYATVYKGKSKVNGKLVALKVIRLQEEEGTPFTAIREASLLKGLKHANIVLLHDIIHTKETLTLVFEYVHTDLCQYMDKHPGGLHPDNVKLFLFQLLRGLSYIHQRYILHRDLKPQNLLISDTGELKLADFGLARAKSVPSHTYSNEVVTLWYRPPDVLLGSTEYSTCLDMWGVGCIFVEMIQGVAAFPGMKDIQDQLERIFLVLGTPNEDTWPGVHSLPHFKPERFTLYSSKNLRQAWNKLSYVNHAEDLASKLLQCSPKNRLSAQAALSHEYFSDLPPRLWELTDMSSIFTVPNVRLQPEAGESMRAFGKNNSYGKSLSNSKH
CDK14/Cyclin Y, sequence (Q8ND76 whole entry partner): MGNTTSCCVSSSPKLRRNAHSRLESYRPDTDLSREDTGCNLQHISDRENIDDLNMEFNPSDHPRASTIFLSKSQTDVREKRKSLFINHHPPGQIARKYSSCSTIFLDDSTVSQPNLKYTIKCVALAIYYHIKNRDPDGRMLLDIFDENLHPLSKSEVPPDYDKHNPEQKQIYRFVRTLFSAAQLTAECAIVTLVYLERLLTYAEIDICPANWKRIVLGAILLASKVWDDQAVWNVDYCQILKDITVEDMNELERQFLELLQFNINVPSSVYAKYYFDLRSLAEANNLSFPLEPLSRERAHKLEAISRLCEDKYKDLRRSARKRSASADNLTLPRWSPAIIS
CDK18/Cyclin Y, sequence (Q07002 whole entry): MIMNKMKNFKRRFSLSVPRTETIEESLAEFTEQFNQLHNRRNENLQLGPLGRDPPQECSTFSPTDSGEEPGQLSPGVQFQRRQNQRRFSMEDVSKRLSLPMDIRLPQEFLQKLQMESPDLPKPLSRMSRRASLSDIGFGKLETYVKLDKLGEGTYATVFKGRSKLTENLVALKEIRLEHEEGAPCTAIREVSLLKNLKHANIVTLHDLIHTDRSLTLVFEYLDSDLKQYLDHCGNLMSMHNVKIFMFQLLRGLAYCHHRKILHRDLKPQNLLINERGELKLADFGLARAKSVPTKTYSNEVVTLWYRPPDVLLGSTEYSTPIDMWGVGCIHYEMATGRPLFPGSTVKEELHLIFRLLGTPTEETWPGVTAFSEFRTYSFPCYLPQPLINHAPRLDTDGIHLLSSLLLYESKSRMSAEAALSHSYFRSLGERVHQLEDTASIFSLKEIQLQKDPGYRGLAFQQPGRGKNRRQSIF
CDK18/Cyclin Y, sequence (Q8ND76 whole entry partner): as the sequence (Q8ND76 whole entry partner) above

O=C1NCCc2[nH]c(-c3ccncc3)cc21 [PHA-767491]
CDK1/E1 Inhibition at 10µM (%) (CDK1/Cyclin E1; average of experiments): 20.9%
CDK1/E1 Inhibition at 10µM (%) (CDK1/Cyclin E1; independent experiment 1): 21.6%
CDK1/E1 Inhibition at 10µM (%) (CDK1/Cyclin E1; independent experiment 2): 20.1%
CDK2/E1 Inhibition at 10µM (%) (CDK2/Cyclin E1; average of experiments): 26.7%
CDK2/E1 Inhibition at 10µM (%) (CDK2/Cyclin E1; independent experiment 1): 26.7%
CDK2/E1 Inhibition at 10µM (%) (CDK2/Cyclin E1; independent experiment 2): 26.6%
CDK3/E1 Inhibition at 10µM (%) (CDK3/Cyclin E1; average of experiments): 31.6%
CDK3/E1 Inhibition at 10µM (%) (CDK3/Cyclin E1; independent experiment 1): 30.4%
CDK3/E1 Inhibition at 10µM (%) (CDK3/Cyclin E1; independent experiment 2): 32.8%
CDK4/D1 Inhibition at 10µM (%) (CDK4/Cyclin D1; average of experiments): 21.3%
CDK4/D1 Inhibition at 10µM (%) (CDK4/Cyclin D1; independent experiment 1): 22.1%
CDK4/D1 Inhibition at 10µM (%) (CDK4/Cyclin D1; independent experiment 2): 20.6%
CDK5/CDK5R1 Inhibition at 10µM (%) (CDK5/CDK5R1; average of experiments): 37.1%
CDK5/CDK5R1 Inhibition at 10µM (%) (CDK5/CDK5R1; independent experiment 1): 38.6%
CDK5/CDK5R1 Inhibition at 10µM (%) (CDK5/CDK5R1; independent experiment 2): 35.7%
CDK6/D1 Inhibition at 10µM (%) (CDK6/Cyclin D1; average of experiments): 19.5%
CDK6/D1 Inhibition at 10µM (%) (CDK6/Cyclin D1; independent experiment 1): 12.0%
CDK6/D1 Inhibition at 10µM (%) (CDK6/Cyclin D1; independent experiment 2): 27.0%
CDK7 Inhibition at 10µM (%) (CDK7; average of experiments): 26.3%
CDK7 Inhibition at 10µM (%) (CDK7; independent experiment 1): 26.2%
CDK7 Inhibition at 10µM (%) (CDK7; independent experiment 2): 26.4%
CDK8/C Inhibition at 10µM (%) (CDK8/Cyclin C; average of experiments): 97.7%
CDK8/C Inhibition at 10µM (%) (CDK8/Cyclin C; independent experiment 1): 98.5%
CDK8/C Inhibition at 10µM (%) (CDK8/Cyclin C; independent experiment 2): 96.9%
CDK9/K Inhibition at 10µM (%) (CDK9/Cyclin K; average of experiments): 95.5%
CDK9/K Inhibition at 10µM (%) (CDK9/Cyclin K; independent experiment 1): 96.2%
CDK9/K Inhibition at 10µM (%) (CDK9/Cyclin K; independent experiment 2): 94.7%
CDK11a/L2 Inhibition at 10µM (%) (CDK11A/Cyclin L2; average of experiments): 24.0%
CDK11a/L2 Inhibition at 10µM (%) (CDK11A/Cyclin L2; independent experiment 1): 26.5%
CDK11a/L2 Inhibition at 10µM (%) (CDK11A/Cyclin L2; independent experiment 2): 21.5%
CDK11b/L2 Inhibition at 10µM (%) (CDK11B/Cyclin L2; average of experiments): 42.2%
CDK11b/L2 Inhibition at 10µM (%) (CDK11B/Cyclin L2; independent experiment 1): 43.3%
CDK11b/L2 Inhibition at 10µM (%) (CDK11B/Cyclin L2; independent experiment 2): 41.0%
CDK12/K Inhibition at 10µM (%) (CDK12/Cyclin K; average of experiments): 18.3%
CDK12/K Inhibition at 10µM (%) (CDK12/Cyclin K; independent experiment 1): 19.8%
CDK12/K Inhibition at 10µM (%) (CDK12/Cyclin K; independent experiment 2): 16.8%
CDK13/K Inhibition at 10µM (%) (CDK13/Cyclin K; average of experiments): 11.6%
CDK13/K Inhibition at 10µM (%) (CDK13/Cyclin K; independent experiment 1): 14.1%
CDK13/K Inhibition at 10µM (%) (CDK13/Cyclin K; independent experiment 2): 9.2%
CDK14/Y Inhibition at 10µM (%) (CDK14/Cyclin Y; average of experiments): 13.9%
CDK14/Y Inhibition at 10µM (%) (CDK14/Cyclin Y; independent experiment 1): 16.7%
CDK14/Y Inhibition at 10µM (%) (CDK14/Cyclin Y; independent experiment 2): 11.1%
CDK15/Y Inhibition at 10µM (%) (CDK15/Cyclin Y; average of experiments): -2.1%
CDK15/Y Inhibition at 10µM (%) (CDK15/Cyclin Y; independent experiment 1): 6.2%
CDK15/Y Inhibition at 10µM (%) (CDK15/Cyclin Y; independent experiment 2): -10.5%
CDK16/Y Inhibition at 10µM (%) (CDK16/Cyclin Y; independent experiment 1): 25.1%
CDK16/Y Inhibition at 10µM (%) (CDK16/Cyclin Y; independent experiment 2): 16.6%
CDK17/Y Inhibition at 10µM (%) (CDK17/Cyclin Y; average of experiments): 24.8%
CDK17/Y Inhibition at 10µM (%) (CDK17/Cyclin Y; independent experiment 1): 31.6%
CDK17/Y Inhibition at 10µM (%) (CDK17/Cyclin Y; independent experiment 2): 18.1%
CDK18/Y Inhibition at 10µM (%) (CDK18/Cyclin Y; average of experiments): 28.3%
CDK18/Y Inhibition at 10µM (%) (CDK18/Cyclin Y; independent experiment 1): 21.8%
CDK18/Y Inhibition at 10µM (%) (CDK18/Cyclin Y; independent experiment 2): 34.7%
CDK20/H Inhibition at 10µM (%) (CDK20/Cyclin H; independent experiment 1): 1.2%
CDK20/H Inhibition at 10µM (%) (CDK20/Cyclin H; independent experiment 2): 0.755%
CDK19/C Inhibition at 10µM (%) (CDK19/Cyclin C; average of experiments): 90.8%
CDK19/C Inhibition at 10µM (%) (CDK19/Cyclin C; independent experiment 1): 91.1%
CDK19/C Inhibition at 10µM (%) (CDK19/Cyclin C; independent experiment 2): 90.5%
CDK10/L2 Inhibition at 10µM (%) (CDK10/Cyclin L2; average of experiments): 11.0%
CDK10/L2 Inhibition at 10µM (%) (CDK10/Cyclin L2; independent experiment 1): 18.5%
CDK10/L2 Inhibition at 10µM (%) (CDK10/Cyclin L2; independent experiment 2): 3.5%
